Measured values published in EPA's ToxRefDB 2.

What was measured:
dog [1] = details: Chronic toxicity, beagle, Oral, Feed, dose end: 12 month, group: systemic
mouse [2] = details: Subchronic oral toxicity in rodents, cd1, Feed, dose end: 6 week, group: systemic, systemic / in life observation / body weight / body weight gain + systemic / organ weight / liver / absolute + systemic / organ weight / …
dog [3] = details: Subchronic oral toxicity in nonrodent, beagle, Feed, dose end: 6 week, group: systemic, systemic / in life observation / body weight / body weight gain + systemic / clinical chemistry / alanine aminotransferase (alt/sgpt) / …
rat [4] = details: Multigenerational reproductive toxicity study, sprague dawley, Oral, Feed, dose end: 2 generation
mouse [5] = details: Subchronic oral toxicity in rodents, cd1, Feed, dose end: 13 week, group: systemic, systemic / clinical chemistry / alkaline phosphatase (alp/alk) / alkaline phosphatase (alp/alk) + systemic / in life observation / clinical …
rat [6] = details: Subchronic oral toxicity in rodents, sprague dawley, Feed, dose end: 13 week, group: systemic
mouse [7] = details: Carcinogenicity, cd1, Oral, Feed, dose end: 18 month, group: systemic
[8] = systemic / clinical chemistry / alanine aminotransferase (alt/sgpt) / alanine aminotransferase (alt/sgpt) + systemic / clinical chemistry / …
[9] = systemic / in life observation / clinical signs / moribundity
[10] = group: offspring, systemic / in life observation / body weight / offspring (pup) weight
[11] = group: offspring, systemic / in life observation / body weight / offspring (pup) weight + systemic / organ weight / liver / relative to body weight
[12] = group: parental, systemic / in life observation / body weight / body weight
[13] = systemic / clinical chemistry / albumin-globulin ratio / albumin-globulin ratio + systemic / organ weight / liver / relative to body weight
[14] = systemic / in life observation / body weight / body weight + systemic / in life observation / body weight / body weight gain + systemic / in…
[15] = systemic / in life observation / body weight / body weight + systemic / in life observation / body weight / body weight gain

For `O=C(O)C1(C(=O)Nc2ccc(Cl)cc2Cl)CC1` [Cyclanilide], the LOAEL (dog [1]; [8]) was 21.2 mg/kg/day, the NOAEL (dog [1]; [8]) was 5.3 mg/kg/day and the LEL (dog [1]; [9]) was 1.3 mg/kg/day. For the same compound, the NEL (dog [1]; [9]) was < 1.3 mg/kg/day, the LEL (mouse [2]) was 552 mg/kg/day and the LOAEL (mouse [2]) was 552 mg/kg/day. The NEL (mouse [2]) was 192 mg/kg/day, the NOAEL (mouse [2]) was 192 mg/kg/day and the LOAEL (dog [3]) was > 20 mg/kg/day. For the same compound, the NOAEL (dog [3]) was ≥ 20 mg/kg/day, the LEL (rat [4]; [10]) was 20.2 mg/kg/day and the LOAEL (rat [4]; [10]) was 20.2 mg/kg/day. It also gave an NEL (rat [4]; [11]) of 2 mg/kg/day, an NOAEL (rat [4]; [11]) of 2 mg/kg/day and an LEL (rat [4]; [12]) of 2 mg/kg/day. For the same compound, the LOAEL (rat [4]; [12]) was 2 mg/kg/day, the NEL (rat [4]; [12]) was < 2 mg/kg/day and the NOAEL (rat [4]; [12]) was < 2 mg/kg/day. The LEL (mouse [5]) was 364 mg/kg/day, the LOAEL (mouse [5]) was 364 mg/kg/day and the NEL (mouse [5]) was 38 mg/kg/day. For the same compound, the NOAEL (mouse [5]) was 38 mg/kg/day, the LEL (rat [6]; [13]) was 32.1 mg/kg/day and the NEL (rat [6]; [13]) was < 32.1 mg/kg/day. The LOAEL (rat [6]; [14]) was 113 mg/kg/day, the NOAEL (rat [6]; [14]) was 54.6 mg/kg/day and the LEL (mouse [7]; [15]) was 8.41 mg/kg/day. The LOAEL (mouse [7]; [15]) was 168 mg/kg/day, the NEL (mouse [7]; [15]) was < 8.41 mg/kg/day and the NOAEL (mouse [7]; systemic / in life observation / body weight / body weight + systemic / in life observation / body weight / body weight gain + systemic / …) was 41.8 mg/kg/day.
